Laboratory results taken from ChEMBL document CHEMBL2074540, “Induction of multidrug resistance protein 3 (mrp3) in vivo is independent of constitutive androstane receptor” (Drug Metab Dispos, 2003).

Molecular target: ATP-binding cassette sub-family C member 3 (Mus musculus, UniProt B2RX12)
Test: TP_TRANSPORTER: Branched DNA Assay in vivo, liver of mouse
Type: functional, organism-based

Chain of ATP-binding cassette sub-family C member 3 (Mus musculus, UniProt B2RX12) (B2RX12 whole entry): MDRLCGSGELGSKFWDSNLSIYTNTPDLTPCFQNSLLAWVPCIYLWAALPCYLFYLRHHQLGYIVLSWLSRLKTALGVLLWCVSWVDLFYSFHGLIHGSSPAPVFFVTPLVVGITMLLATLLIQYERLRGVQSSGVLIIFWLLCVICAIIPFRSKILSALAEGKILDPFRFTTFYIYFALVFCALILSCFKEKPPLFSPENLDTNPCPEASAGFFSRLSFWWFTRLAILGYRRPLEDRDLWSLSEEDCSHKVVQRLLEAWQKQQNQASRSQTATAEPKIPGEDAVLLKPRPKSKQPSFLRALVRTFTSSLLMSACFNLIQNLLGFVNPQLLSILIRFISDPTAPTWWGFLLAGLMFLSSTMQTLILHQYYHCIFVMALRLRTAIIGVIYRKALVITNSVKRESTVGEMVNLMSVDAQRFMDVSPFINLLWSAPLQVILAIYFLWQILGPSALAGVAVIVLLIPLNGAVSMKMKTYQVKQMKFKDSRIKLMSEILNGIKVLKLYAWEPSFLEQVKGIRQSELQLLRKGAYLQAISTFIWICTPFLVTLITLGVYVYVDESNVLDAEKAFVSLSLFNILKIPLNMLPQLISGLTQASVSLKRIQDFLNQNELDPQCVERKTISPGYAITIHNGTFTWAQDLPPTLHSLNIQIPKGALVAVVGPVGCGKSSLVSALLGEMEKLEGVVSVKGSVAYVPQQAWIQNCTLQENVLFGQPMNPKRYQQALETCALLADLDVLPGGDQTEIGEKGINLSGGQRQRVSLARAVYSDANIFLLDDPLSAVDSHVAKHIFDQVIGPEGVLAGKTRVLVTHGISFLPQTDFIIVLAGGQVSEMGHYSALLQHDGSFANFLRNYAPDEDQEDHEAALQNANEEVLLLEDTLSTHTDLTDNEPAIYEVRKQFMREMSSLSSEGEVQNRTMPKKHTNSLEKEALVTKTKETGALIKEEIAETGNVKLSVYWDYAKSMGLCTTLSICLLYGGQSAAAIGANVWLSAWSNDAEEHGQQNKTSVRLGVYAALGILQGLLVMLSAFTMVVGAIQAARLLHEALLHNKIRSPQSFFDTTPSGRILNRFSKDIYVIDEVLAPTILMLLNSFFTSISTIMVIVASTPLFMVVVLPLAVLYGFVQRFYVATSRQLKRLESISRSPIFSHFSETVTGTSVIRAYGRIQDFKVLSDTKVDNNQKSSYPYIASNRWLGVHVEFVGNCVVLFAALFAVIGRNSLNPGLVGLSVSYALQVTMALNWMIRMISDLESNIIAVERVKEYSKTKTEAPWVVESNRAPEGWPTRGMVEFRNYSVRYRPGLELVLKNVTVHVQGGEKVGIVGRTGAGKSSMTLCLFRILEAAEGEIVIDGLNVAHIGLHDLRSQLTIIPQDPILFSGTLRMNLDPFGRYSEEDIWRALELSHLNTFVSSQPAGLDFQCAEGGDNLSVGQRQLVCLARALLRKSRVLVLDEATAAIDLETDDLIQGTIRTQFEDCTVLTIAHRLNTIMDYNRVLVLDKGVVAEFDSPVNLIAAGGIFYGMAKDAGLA

| Compound | Activity |
| --- | --- |
| c1ccc([C@H]2O[C@@H]2c2ccccc2)cc1 (relative stereo) | inducer [] |
| C=CCSCC=C [DIALLYL SULFIDE] | inducer [] |
| Cc1c(-c2cnccn2)ssc1=S [OLTIPRAZ] | inducer [] |
| CCC1(c2ccccc2)C(=O)NC(=O)NC1=O [PHENOBARBITAL] | inducer [] |

Molecular target: ATP-binding cassette sub-family C member 3 (Rattus norvegicus, UniProt O88563)
Sequence (O88563 whole entry): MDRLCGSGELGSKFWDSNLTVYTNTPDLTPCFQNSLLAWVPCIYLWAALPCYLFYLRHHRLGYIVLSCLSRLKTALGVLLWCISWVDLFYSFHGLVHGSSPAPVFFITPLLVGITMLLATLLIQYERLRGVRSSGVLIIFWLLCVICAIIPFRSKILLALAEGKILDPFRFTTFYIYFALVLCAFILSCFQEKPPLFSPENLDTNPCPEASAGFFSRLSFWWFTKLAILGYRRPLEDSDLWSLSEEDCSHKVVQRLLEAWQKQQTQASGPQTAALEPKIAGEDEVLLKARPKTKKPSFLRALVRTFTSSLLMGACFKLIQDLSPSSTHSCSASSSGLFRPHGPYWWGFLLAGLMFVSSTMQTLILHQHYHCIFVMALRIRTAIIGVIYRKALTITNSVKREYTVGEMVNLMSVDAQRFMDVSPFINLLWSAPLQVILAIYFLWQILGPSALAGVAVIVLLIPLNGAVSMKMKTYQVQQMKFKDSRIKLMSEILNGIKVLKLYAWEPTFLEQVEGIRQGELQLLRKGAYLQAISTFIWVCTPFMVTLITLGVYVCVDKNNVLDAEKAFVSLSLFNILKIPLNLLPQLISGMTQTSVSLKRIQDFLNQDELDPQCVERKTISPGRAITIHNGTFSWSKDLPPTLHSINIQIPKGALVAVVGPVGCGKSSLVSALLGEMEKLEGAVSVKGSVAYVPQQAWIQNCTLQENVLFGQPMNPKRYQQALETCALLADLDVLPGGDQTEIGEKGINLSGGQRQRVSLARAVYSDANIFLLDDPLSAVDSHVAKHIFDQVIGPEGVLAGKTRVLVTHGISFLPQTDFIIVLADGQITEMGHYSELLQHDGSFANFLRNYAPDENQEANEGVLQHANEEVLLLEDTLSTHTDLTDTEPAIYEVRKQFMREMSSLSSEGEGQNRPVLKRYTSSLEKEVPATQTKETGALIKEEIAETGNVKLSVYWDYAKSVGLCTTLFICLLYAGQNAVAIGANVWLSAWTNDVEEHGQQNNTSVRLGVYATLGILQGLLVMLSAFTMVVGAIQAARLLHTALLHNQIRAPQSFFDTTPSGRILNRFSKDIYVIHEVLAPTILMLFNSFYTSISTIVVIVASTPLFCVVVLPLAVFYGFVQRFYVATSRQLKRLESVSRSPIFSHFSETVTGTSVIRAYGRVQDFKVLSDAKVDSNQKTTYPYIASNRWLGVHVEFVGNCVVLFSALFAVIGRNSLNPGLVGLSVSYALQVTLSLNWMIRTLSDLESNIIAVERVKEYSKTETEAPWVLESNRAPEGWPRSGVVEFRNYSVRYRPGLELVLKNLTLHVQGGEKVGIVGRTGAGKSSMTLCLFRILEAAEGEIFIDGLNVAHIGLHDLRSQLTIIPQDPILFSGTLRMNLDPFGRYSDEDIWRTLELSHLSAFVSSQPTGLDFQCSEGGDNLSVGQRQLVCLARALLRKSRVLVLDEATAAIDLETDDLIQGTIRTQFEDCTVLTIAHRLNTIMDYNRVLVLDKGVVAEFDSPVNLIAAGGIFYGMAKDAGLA
Test: TP_TRANSPORTER: Branched DNA Assay in vivo, liver of WKY rat
Type: functional, organism-based

| Compound | Activity |
| --- | --- |
| c1ccc([C@H]2O[C@@H]2c2ccccc2)cc1 (relative stereo) | inducer [] |
| C=CCSCC=C [DIALLYL SULFIDE] | inducer [] |
| Cc1c(-c2cnccn2)ssc1=S [OLTIPRAZ] | inducer [] |
| CCC1(c2ccccc2)C(=O)NC(=O)NC1=O [PHENOBARBITAL] | inducer [] |
